In patent US20120245184A1 (Aderans Research Institute, Inc., priority 2006, published 2012):
Structures can show the parent of a compound that is named as a salt.

What was measured:
[1] = system: sonic hedgehog pathway; experiment: Human hedgehog reporter assay HEPM-GliLuc (HGL); assay type: cell-based; conditions: HepM human embryonic palatal mesenchymal cells, gli-luciferase reporter; read-out: HEPM Avg. EC50
From the text: (§1) Mouse (TM3: mouse Leydig cells; S12: mouse embryonic mesenchymal cells) and human (Daoy: human medulloblastoma cell; HepM: human embryonic palatal mesenchymal cell) cell lines are used to screen small molecules for their ability to modulate the activity of the sonic hedgehog pathway (Table 1, Table 2, and Table 3). Stable hedgehog pathway reporter cell lines are established by specific antibiotic selection following transfection of a reporter plasmid containing a luciferase gene located directly downstream from the gli promoter. Consequently, any observable changes in cellular luciferase activity may be attributed to changes in sonic hedgehog pathway activity in mouse and human cells, respectively, since gli is the major by-product of this pathway. To calculate activity, we generate an eleven point dose curve for each compound using 1:3 dilutions in 96 well assay plates. Each plate tested also contains low and high control to establish maximal pathway activation so to establish/compare a percentage activation of each tested compound (AMAX) on respective plates.
(§2) Stable hedgehog pathway reporter cell lines are established following specific antibiotic selection following transfection of a reporter plasmid
(§3) In short, typically cells are plated in MicroTiter-plates at 10,000-20,000 cells per well, in growth media (containing 10%-20% FBS). After 48-72 hrs (HGL and DGL respectively) the media in the assay plates is switched to low-serum containing media (0.5% FBS). At that time compounds are added (at 1-5 μM) to the assay plates, in the presence or absence of hedgehog protein (octyl-modified version; 1-5 ng/ml). After another 24 hrs of incubation, the media from the assay plates is discarded and replaced with luciferase assay-mix. Subsequently, plates are incubated at RT for ˜15-30 mins and then read in a luminometer. [note: addition of the Hedgehog protein, although not critical, will sensitize the assay allowing the identification of weak actives].

[2] = system: sonic hedgehog pathway; experiment: Hedgehog reporter assay (gli-luciferase) in TM3 cells; assay type: cell-based, mouse; conditions: TM3 mouse Leydig cells, gli-luciferase reporter; read-out: TM3 Avg. EC50
From the text: as §1, §2, §3

[3] = system: sonic hedgehog pathway; experiment: Human hedgehog reporter assay Daoy-GliLuc (DGL); assay type: cell-based
From the text: as §1, §2, §3

[4] = system: sonic hedgehog pathway; experiment: Hedgehog reporter assay (gli-luciferase) in S12 cells; assay type: cell-based; conditions: S12 mouse embryonic mesenchymal cells, read-out: Mouse S12 Avg. EC50
From the text: as §1, with “respective plates. Also we calculate EC50 values, or a concentration where the pathway will be exactly 50% activated, for each tested compound to determine potency. In these cell lines, compounds that register >20% AMAX values are considered active.” for “respective plates.”
as §2, §3

[5] = Daoy human medulloblastoma cells, gli-luciferase reporter, read-out: Daoy Avg. EC50
[6] = Daoy human medulloblastoma cells, gli-luciferase reporter, read-out: Human Daoy (Gli-Luc) Avg. EC50

Row | Compound | EC50 [1] [nM] | EC50 [2] [nM] | EC50 [3, 5] [nM] | EC50 [4] [nM] | EC50 [3, 6] [nM] | EC50 ([3]; Homo sapiens, Daoy, read-out: Human Daoy (Gli-Luc) Avg. EC50 (nM)) [nM]
1 | CN[C@H]1CC[C@@H](N(Cc2cc(-c3ccnc(N(C)C)c3)ccc2OC)C(=O)c2sc3c(C)ccc(C)c3c2Cl)CC1 [Compound 358, 3-Chloro-4,7-difluoro-benzo[b]thiophene-2-carboxylic acid[5-(2-dimethylamino-pyridin-4-yl)-2-methoxy-benzyl]-(4-methylamino-cyclohexyl)-amide dihydrochloride] | < 50 | < 50 | < 50 | – | – | –
2 | CNC1CCC(N(Cc2cc(-c3cnccn3)ccc2OC)C(=O)c2sc3c(F)ccc(F)c3c2Cl)CC1 (stereo not drawn) [Compound 344 (R14), 3-Chloro-4,7-difluoro-benzo[b]thiophene-2-carboxylic acid(2-methoxy-5-pyrazin-2-yl-benzyl)-(4-methylamino-cyclohexyl)-amide dihydrochloride] | < 50 | < 50 | < 50 | – | – | –
3 | CNC1CCC(N(Cc2cc(-c3cc[n+]([O-])cc3)ccc2OC)C(=O)c2sc3c(F)ccc(F)c3c2Cl)CC1 (stereo not drawn) [Compound 374, 4-(3-((3-chloro-4,7-difluoro-N-((1s,4s)-4-(methylamino)cyclohexyl)benzo[b]thiophene-2-carboxamido)methyl)-4-methoxyphenyl)pyridine 1-oxide] | – | – | – | < 50 | < 50 | –
4 | CNC1CCC(N(Cc2cc(-c3ccc(C(=O)C(F)(F)F)cc3)ccc2OC)C(=O)c2sc3c(F)ccc(F)c3c2Cl)CC1 (stereo not drawn) [Compound 349, 3-Chloro-4,7-difluoro-benzo[b]thiophene-2-carboxylic acid[4-methoxy-4′-(2,2,2-trifluoro-acetyl)-biphenyl-3-ylmethyl]-(4-methylamino-cyclohexyl)-amide trifluoroacetate] | < 50 | < 50 | < 50 | – | – | –
5 | CNC1CCC(N(Cc2cc(-c3ccc(N(C)S(C)(=O)=O)cc3)ccc2OC)C(=O)c2sc3c(F)ccc(F)c3c2Cl)CC1 (stereo not drawn) [Compound 371, 3-Chloro-4,7-difluoro-benzo[b]thiophene-2-carboxylic acid[4′-(methanesulfonyl-methyl-amino)-4-methoxy-biphenyl-3-ylmethyl]-(4-methylamino-cyclohexyl)-amide hydrochloride] | – | – | – | < 50 | < 50 | –
6 | CCS(=O)(=O)c1ccc(-c2ccc(OC)c(CN(C(=O)c3sc4c(F)ccc(F)c4c3Cl)C3CCC(NC)CC3)c2)cc1 (stereo not drawn) [Compound 389, 3-Chloro-4,7-difluoro-benzo[b]thiophene-2-carboxylic acid (4′-ethanesulfonyl-4-methoxy-biphenyl-3-ylmethyl)-(4-methylamino-cyclohexyl)-amide hydrochloride] | – | – | – | < 50 | – | < 50
7 | CNC(=O)c1cc(-c2ccc(OC)c(CN(C(=O)c3sc4c(F)ccc(F)c4c3Cl)C3CCC(NC)CC3)c2)ccn1 (stereo not drawn) [356 (R21), 4-(3-{[(3-Chloro-4,7-difluoro-benzo[b]thiophene-2-carbonyl)-(4-methylamino-cyclohexyl)-amino]-methyl}-4-methoxy-phenyl)-pyridine-2-carboxylic acid methylamide dihydrochloride] | < 50 | < 50 | < 50 | – | – | –
8 | CNC1CCC(N(Cc2cc(-c3cc(C)cc(C)c3)ccc2OC)C(=O)C2=C(Cl)c3c(C)ccc(F)c3C2)CC1 (stereo not drawn) [Compound 350, 3-Chloro-4,7-difluoro-benzo[b]thiophene-2-carboxylic acid[5-(2,6-dimethyl-pyridin-4-yl)-2-methoxy-benzyl]-(4-methylamino-cyclohexyl)-amide dihydrochloride] | 50 to 250 | < 50 | < 50 | – | – | –
9 | CNC1CCC(N(Cc2cc(-c3ccc(OC)cc3)ccc2OC)C(=O)c2sc3ccccc3c2Cl)CC1 (stereo not drawn) [Compound 305, 3-Chloro-benzo[b]thiophene-2-carboxylic acid (4,4′-dimethoxy-biphenyl-3-ylmethyl)-(4-methylamino-cyclohexyl)-amide hydrochloride] | 250 to 1000 | < 50 | < 50 | – | – | –
10 | CCOc1ccc(-c2cccc(C#N)c2)cc1CN(C(=O)c1sc2ccccc2c1Cl)C1CCC(NC)CC1 (stereo not drawn) [Compound 328, 3-Chloro-benzo[b]thiophene-2-carboxylic acid (3′-cyano-4-ethoxy-biphenyl-3-ylmethyl)-(4-methylamino-cyclohexyl)-amide hydrochloride] | 50 to 250 | < 50 | < 50 | – | – | –
11 | CN[C@H]1CC[C@@H](N(Cc2cc(-c3ccnc(C)c3)ccc2OC)C(=O)C2=C(Cl)c3c(F)ccc(C)c3C2)CC1 [Compound 345, 3-Chloro-4,7-difluoro-benzo[b]thiophene-2-carboxylic acid[2-methoxy-5-(2-methyl-pyridin-4-yl)-benzyl]-(4-methylamino-cyclohexyl)-amide dihydrochloride] | < 50 | < 50 | < 50 | – | – | –
12 | CCOc1ccc(-c2ccc(C(C)=O)cc2)cc1CN(C(=O)c1sc2ccccc2c1Cl)C1CCC(NC)CC1 (stereo not drawn) [Compound 311, 3-Chloro-benzo[b]thiophene-2-carboxylic acid (4′-acetyl-4-ethoxy-biphenyl-3-ylmethyl)-(4-methylamino-cyclohexyl)-amide hydrochloride] | 50 to 250 | < 50 | < 50 | – | – | –
13 | CNC1CCC(N(Cc2cc(-c3ccc(N(C)C=O)cc3)ccc2OC)C(=O)c2sc3cccc(F)c3c2Cl)CC1 (stereo not drawn) [Compound 347, 3-Chloro-4-fluoro-benzo[b]thiophene-2-carboxylic acid[4′-(formyl-methyl-amino)-4-methoxy-biphenyl-3-ylmethyl]-(4-methylamino-cyclohexyl)-amide trifluoroacetate] | < 50 | < 50 | < 50 | – | – | –
14 | CCOc1ccc(-c2cnc(N)nc2)cc1CN(C(=O)c1sc2ccccc2c1Cl)[C@H]1CC[C@H](NC)CC1 [Compound 325, 3-Chloro-benzo[b]thiophene-2-carboxylic acid[5-(2-amino-pyrimidin-5-yl)-2-ethoxy-benzyl]-(4-methylamino-cyclohexyl)-amide dihydrochloride] | 50 to 250 | 250 to 1000 | < 50 | – | – | –
15 | CNC1CCC(N(Cc2cc(-c3cncnc3)ccc2OC)C(=O)c2sc3ccccc3c2Cl)CC1 (stereo not drawn) [Compound 324 (R20), 3-Chloro-benzo[b]thiophene-2-carboxylic acid (2-methoxy-5-pyrimidin-5-yl-benzyl)-(4-methylamino-cyclohexyl)-amide dihydrochloride] | 50 to 250 | 50 to 250 | < 50 | – | – | –
16 | CCOc1ccc(-c2cncnc2)cc1CN(C(=O)c1sc2ccccc2c1Cl)C1CCC(NC)CC1 (stereo not drawn) [Compound 326, 3-Chloro-benzo[b]thiophene-2-carboxylic acid (2-ethoxy-5-pyrimidin-5-yl-benzyl)-(4-methylamino-cyclohexyl)-amide dihydrochloride] | 50 to 250 | 50 to 250 | < 50 | – | – | –
17 | CNC1CCC(N(Cc2cc(-c3cnccn3)ccc2OC)C(=O)c2sc3ccccc3c2Cl)CC1 (stereo not drawn) [Compound 330 (R22), 3-Chloro-benzo[b]thiophene-2-carboxylic acid (2-methoxy-5-pyrazin-2-yl-benzyl)-(4-methylamino-cyclohexyl)-amide bis(trifluoroacetate)] | 50 to 250 | 50 to 250 | < 50 | – | – | –
18 | CNC1CCC(N(Cc2cc(-c3cncnc3)ccc2OC)C(=O)c2sc3c(F)ccc(F)c3c2Cl)CC1 (stereo not drawn) [Compound 343 (R15), 3-Chloro-4,7-difluoro-benzo[b]thiophene-2-carboxylic acid(2-methoxy-5-pyrimidin-5-yl-benzyl)-(4-methylamino-cyclohexyl)-amide dihydrochloride] | < 50 | < 50 | < 50 | – | – | –
19 | CNC1CCC(N(Cc2cc(-c3ccc(CCl)cc3)ccc2OC)C(=O)c2sc3ccccc3c2Cl)CC1 (stereo not drawn) [Compound 340, 3-Chloro-benzo[b]thiophene-2-carboxylic acid (4′-chloromethyl-4-methoxy-biphenyl-3-ylmethyl)-(4-methylamino-cyclohexyl)-amide hydrochloride] | < 50 | < 50 | < 50 | – | – | –
